Results on 15 compounds are retold here after patent US12441768B2, “Compositions and methods for treating endometriosis” (EndoMet Biosciences, Inc., priority 2018, dated 2025).

Where a SMILES comes first, the peptide text is derived from it.

In data set [1] the target is Wnt-responsive promoter (TCF/LEF). The data set is described as follows: Wnt-dependent luciferase reporter assay. It is filed as cell-based, murine. The essentials:
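Murine 3T3 fibroblasts carrying a TCF/LEF-driven luciferase reporter, stimulated with Wnt3a in the presence of increasing peptide concentrations or vehicle. Luminescence inhibition gave EC50 values in uM.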
(In general: Reporter assays use an easily measured gene product as a stand-in for the process of interest.)

For a further data set, the target named is T1, β-catenin (Homo sapiens, UniProt P35222).
T1 sequence (P35222 1-781): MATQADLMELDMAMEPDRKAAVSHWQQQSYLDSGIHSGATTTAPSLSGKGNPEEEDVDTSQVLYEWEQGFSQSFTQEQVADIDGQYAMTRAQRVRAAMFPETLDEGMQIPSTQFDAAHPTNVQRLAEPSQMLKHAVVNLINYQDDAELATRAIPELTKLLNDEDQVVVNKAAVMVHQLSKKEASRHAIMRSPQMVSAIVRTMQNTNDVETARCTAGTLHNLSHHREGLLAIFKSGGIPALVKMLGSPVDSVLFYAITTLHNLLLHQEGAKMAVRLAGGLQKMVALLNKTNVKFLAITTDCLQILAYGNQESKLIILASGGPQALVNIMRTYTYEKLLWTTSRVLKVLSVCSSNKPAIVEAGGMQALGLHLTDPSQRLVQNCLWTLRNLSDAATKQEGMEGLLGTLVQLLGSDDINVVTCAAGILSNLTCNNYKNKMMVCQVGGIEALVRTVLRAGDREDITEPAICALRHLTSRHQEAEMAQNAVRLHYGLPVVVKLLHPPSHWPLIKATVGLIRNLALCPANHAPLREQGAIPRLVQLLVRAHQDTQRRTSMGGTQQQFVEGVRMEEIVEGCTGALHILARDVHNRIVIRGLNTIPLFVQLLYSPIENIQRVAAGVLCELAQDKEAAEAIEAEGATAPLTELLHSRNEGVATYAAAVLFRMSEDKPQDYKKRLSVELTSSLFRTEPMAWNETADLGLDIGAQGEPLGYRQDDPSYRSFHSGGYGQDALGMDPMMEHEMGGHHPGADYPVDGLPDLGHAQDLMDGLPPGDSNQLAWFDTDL
In words: KD50 measurement using competitive fluorescence polarization (FP) with labelled TCF4. The class given is binding. Conditions: fluorescence polarization, β-catenin; for Kd: read-out: β-Cat FP KD. The essentials:
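Labelled TCF4 (5 nM) mixed with 100 nM β-catenin at room temperature; inhibitor added as serial dilutions from 10 nM to 30 uM. Polarization read at excitation 470 nm/emission 520 nm; binding displacement lowers polarization. Three independent runs.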
For orientation: Fluorescence polarisation rises when a labelled molecule tumbles more slowly, as on binding a larger partner.

The conditions of data set [2]: % Viability non-Wnt responsive cells.

Turning to `CC[C@H](C)[C@H](NC(=O)[C@H](CC(C)C)NC(=O)[C@H](Cc1ccccc1)NC(=O)[C@H](Cc1c[nH]c2ccccc12)NC(=O)[C@H](CCSC)NC(C)=O)C(=O)N[C@@H](CS)C(=O)N[C@@H](Cc1ccccc1)C(=O)N[C@@H](Cc1c[nH]c2ccccc12)C(=O)NCCCC(=O)O` [compound 197] (HELM PEPTIDE1{[ac].M.W.F.L.I.C.F.W.[O=C(O)CCCN[*:1]]}$$$$V2.0), the EC50 in data set [1] was below 7.5 µM. Further, on β-catenin, the “β-Cat FP Hill slope” value was found to be 1.52 and the Kd is 0.4 to 1 µM. Further, the viability in data set [2] came to 89.8%.

Turning to `CC[C@H](C)[C@H](NC(=O)[C@H](CC(C)C)NC(=O)[C@H](Cc1ccccc1)NC(=O)[C@H](Cc1c[nH]c2ccccc12)NC(=O)[C@H](CCSC)NC(C)=O)C(=O)N[C@@H](CS)C(=O)N[C@@H](Cc1ccccc1)C(=O)N[C@@H](Cc1c[nH]c2ccccc12)C(=O)NCC(=O)O` [compound 198] (Ac-MWFLICFWG-OH), in data set [1], the EC50 was below 7.5 µM. For the same compound, at β-catenin, the “β-Cat FP Hill slope” value is 2.18 and the Kd lay in the range of 0.4 to 1 µM. In data set [2], the viability came to 81.4%.

As to `CC[C@H](C)[C@@H]1NC(=O)[C@H](CC(C)C)NC(=O)[C@H](Cc2ccccc2)NC(=O)[C@H](Cc2c[nH]c3ccccc23)NC(=O)[C@@H](NC(C)=O)CCCCNC(=O)CC[C@@H](C(=O)O)NC(=O)[C@H](Cc2c[nH]c3ccccc23)NC(=O)[C@H](Cc2ccccc2)NC(=O)[C@H](CO)NC1=O` [compound 199] (HELM PEPTIDE1{[ac].K.W.F.L.I.S.F.W.E}$PEPTIDE1,PEPTIDE1,2:R3-10:R3$$$V2.0), the EC50 in data set [1] is below 7.5 µM. In addition, on β-catenin, the “β-Cat FP Hill slope” value was 0.7 and the Kd fell in the range of 0.4 to 1 µM. The viability in data set [2] came out at 89.8%.

On to `CC[C@H](C)[C@@H]1NC(=O)[C@H](CC(C)C)NC(=O)[C@H](Cc2ccccc2)NC(=O)[C@H](Cc2c[nH]c3ccccc23)NC(=O)[C@@H](NC(C)=O)CCCCNC(=O)CC[C@@H](C(=O)O)NC(=O)[C@H](Cc2c[nH]c3ccccc23)NC(=O)[C@H](Cc2ccccc2)NC(=O)[C@H](C)NC1=O` [compound 200] (HELM PEPTIDE1{[ac].K.W.F.L.I.A.F.W.E}$PEPTIDE1,PEPTIDE1,2:R3-10:R3$$$V2.0), for which, in data set [1], the EC50 is below 7.5 µM. At β-catenin, the “β-Cat FP Hill slope” value amounted to 0.7 and the Kd is 1 to 10 µM. Further, the viability in data set [2] turned out to be 81.4%.

For the compound `CC[C@H](C)[C@@H]1NC(=O)[C@H](CC(C)C)NC(=O)[C@H](Cc2ccccc2)NC(=O)[C@H](Cc2c[nH]c3ccccc23)NC(=O)[C@@H](N)CCCCNC(=O)CC[C@@H](C(=O)O)NC(=O)[C@H](Cc2c[nH]c3ccccc23)NC(=O)[C@H](Cc2ccccc2)NC(=O)[C@H](C)NC1=O` [compound 201] (HELM PEPTIDE1{K.W.F.L.I.A.F.W.E}$PEPTIDE1,PEPTIDE1,1:R3-9:R3$$$V2.0), the 50% effective concentration (EC50) in data set [1] was in the range of 22.5 to 30 µM. At β-catenin, the “β-Cat FP Hill slope” value is recorded as 0.7 and the Kd was in the range of 1 to 10 µM. In data set [2], the viability worked out at 60.1%.

The compound `CC[C@H](C)[C@@H]1NC(=O)[C@H](CC(C)C)NC(=O)[C@H](Cc2ccccc2)NC(=O)[C@H](Cc2c[nH]c3ccccc23)NC(=O)[C@@H](N)CCCCNC(=O)C[C@@H](C(=O)O)NC(=O)[C@H](Cc2c[nH]c3ccccc23)NC(=O)[C@H](C)NC(=O)[C@H](CO)NC1=O` [compound 202] (HELM PEPTIDE1{K.W.F.L.I.S.A.W.D}$PEPTIDE1,PEPTIDE1,1:R3-9:R3$$$V2.0) registered an EC50 in data set [1] of 22.5 to 30 µM. At β-catenin, the Kd was above 30 µM. Further, the viability in data set [2] amounted to 92.1%.

In data set [1], `CC[C@H](C)[C@@H]1NC(=O)[C@H](CC(C)C)NC(=O)[C@H](CC2CCCCC2)NC(=O)[C@H](Cc2c[nH]c3ccccc23)NC(=O)[C@@H](N)CCCCNC(=O)C[C@@H](C(=O)O)NC(=O)[C@H](Cc2c[nH]c3ccccc23)NC(=O)[C@H](C)NC(=O)[C@H](CO)NC1=O` [compound 203] (HELM PEPTIDE1{K.W.[Cha].L.I.S.A.W.D}$PEPTIDE1,PEPTIDE1,1:R3-9:R3$$$V2.0) displayed an EC50 of 7.5 to 15 µM. For the same compound, the Kd on β-catenin was above 30 µM. Further, in data set [2], the viability came to 98%.

`CC[C@H](C)[C@@H]1NC(=O)[C@H](CC(C)C)NC(=O)[C@H](C2CCCCC2)NC(=O)[C@H](Cc2c[nH]c3ccccc23)NC(=O)[C@@H](N)CCCCNC(=O)C[C@@H](C(=O)O)NC(=O)[C@H](Cc2c[nH]c3ccccc23)NC(=O)[C@H](C)NC(=O)[C@H](CO)NC1=O` [compound 204] (HELM PEPTIDE1{K.W.[O=C([C@@H](N[*:1])C1CCCCC1)[*:2]].L.I.S.A.W.D}$PEPTIDE1,PEPTIDE1,1:R3-9:R3$$$V2.0): in data set [1], the EC50 was below 7.5 µM. Moreover, on β-catenin, the “β-Cat FP Hill slope” value amounted to 0.74 and the Kd was in the range of 0.4 to 1 µM. Also, the viability in data set [2] worked out at 108%.

Compound `CC[C@H](C)[C@@H]1NC(=O)[C@H](CC(C)C)NC(=O)[C@H](C(C)(C)C)NC(=O)[C@H](Cc2c[nH]c3ccccc23)NC(=O)[C@@H](N)CCCCNC(=O)C[C@@H](C(=O)O)NC(=O)[C@H](Cc2c[nH]c3ccccc23)NC(=O)[C@H](C)NC(=O)[C@H](CO)NC1=O` [compound 205] (HELM PEPTIDE1{K.W.[CC(C)(C)[C@H](N[*:1])C(=O)[*:2]].L.I.S.A.W.D}$PEPTIDE1,PEPTIDE1,1:R3-9:R3$$$V2.0) had an EC50 in data set [1] above 30 µM. The Kd at β-catenin is above 30 µM. Moreover, in data set [2], the viability came to 114%.

Regarding `CC[C@H](C)[C@@H]1NC(=O)[C@H](CC(C)C)NC(=O)[C@H](CC(C)C)NC(=O)[C@H](Cc2c[nH]c3ccccc23)NC(=O)[C@@H](N)CCCCNC(=O)C[C@@H](C(=O)O)NC(=O)[C@H](Cc2c[nH]c3ccccc23)NC(=O)[C@H](C)NC(=O)[C@H](CO)NC1=O` [compound 206] (HELM PEPTIDE1{K.W.L.L.I.S.A.W.D}$PEPTIDE1,PEPTIDE1,1:R3-9:R3$$$V2.0), the EC50 in data set [1] fell in the range of 15 to 22.5 µM. The Kd on β-catenin is above 30 µM. For the same compound, the viability in data set [2] came out at 98.7%.

In data set [1], `CC[C@H](C)[C@@H]1NC(=O)[C@H](CC(C)C)NC(=O)[C@H](Cc2ccccc2)NC(=O)[C@H](Cc2c[nH]c3ccccc23)NC(=O)[C@@H](N)CCCCNC(=O)CNC(=O)C[C@@H](C(=O)O)NC(=O)[C@H](Cc2c[nH]c3ccccc23)NC(=O)[C@H](C)NC(=O)[C@H](CS)NC1=O` [compound 207] (HELM PEPTIDE1{K.W.F.L.I.C.A.W.[O=C(O)[C@H](CC(=O)[*:2])N[*:1]].G}$PEPTIDE1,PEPTIDE1,1:R3-10:R2$$$V2.0) showed an EC50 below 7.5 µM. For the same compound, at β-catenin, the “β-Cat FP Hill slope” value amounted to 0.7 and the Kd lay in the range of 0.4 to 1 µM. The viability in data set [2] is 107%.

In turn, `CC[C@H](C)[C@H](NC(=O)[C@@H]1CCC(=O)NCCCC[C@H](N)C(=O)N[C@@H](Cc2c[nH]c3ccccc23)C(=O)N[C@@H](Cc2ccccc2)C(=O)N1)C(=O)N[C@@H](CO)C(=O)N[C@@H](Cc1ccccc1)C(=O)N[C@@H](Cc1c[nH]c2ccccc12)C(=O)NCC(=O)O` [compound 208] (HELM PEPTIDE1{K.W.F.E.I.S.F.W.G}$PEPTIDE1,PEPTIDE1,1:R3-4:R3$$$V2.0) yielded a half-maximal effective concentration (EC50) in data set [1] of 7.5 to 15 µM. Further, at β-catenin, the “β-Cat FP Hill slope” value was 0.69 and the Kd was 1 to 10 µM. Moreover, the viability in data set [2] was found to be 93.4%.

The compound `CC[C@H](C)[C@H](NC(=O)[C@H](CC(C)C)NC(=O)[C@H](Cc1ccccc1)NC(=O)[C@H](Cc1c[nH]c2ccccc12)NC(=O)[C@H](C)N)C(=O)N[C@@H](CO)C(=O)N[C@@H](Cc1ccccc1)C(=O)N[C@@H](Cc1c[nH]c2ccccc12)C(=O)NCC(=O)O` [compound 209] (H-AWFLISFWG-OH) came in with an EC50 in data set [1] below 7.5 µM. Besides, on β-catenin, the “β-Cat FP Hill slope” value is 0.93 and the Kd lay within 0.4 to 1 µM. For the same compound, the viability in data set [2] worked out at 91%.

In data set [1], `CC[C@H](C)[C@H](NC(=O)[C@H](CC(C)C)NC(=O)[C@H](Cc1ccccc1)NC(=O)[C@H](C)NC(=O)[C@@H](N)CCSC)C(=O)N[C@@H](CO)C(=O)N[C@@H](Cc1ccccc1)C(=O)N[C@@H](Cc1c[nH]c2ccccc12)C(=O)NCC(=O)O` [compound 210] (H-MAFLISFWG-OH) yielded an EC50 below 7.5 µM. At β-catenin, the “β-Cat FP Hill slope” value is 0.6 and the Kd fell in the range of 1 to 10 µM. Moreover, the viability in data set [2] is 96.4%.

In data set [1], `CC[C@H](C)[C@H](NC(=O)[C@H](CC(C)C)NC(=O)[C@H](Cc1ccccc1)NC(=O)[C@H](Cc1c[nH]c2ccccc12)NC(=O)[C@@H](N)CCSC)C(=O)N[C@@H](CS)C(=O)N[C@@H](C)C(=O)N[C@@H](Cc1c[nH]c2ccccc12)C(=O)NCC(=O)O` [compound 211] (H-MWFLICAWG-OH) returned a 50% effective concentration (EC50) below 7.5 µM. On β-catenin, the “β-Cat FP Hill slope” value was found to be 0.67 and the Kd fell in the range of 1 to 10 µM. Besides, the viability in data set [2] came to 93.9%.

What is called EC50 is the concentration that produces a half-maximal response. The Kd is the constant that tells how readily two partners part at equilibrium. The term viability denotes a read-out of living cells in per cent, often relative to untreated cells.
